From US8822216B2, “DNA regulatory element for the expression of transgenes in neurons of a subject and uses thereof” (priority 1997, dated 2014)
One block for each compound: values may come before it.

Tests used:
NMDA receptors = test: NMDA-mediated synaptic field potentials in hippocampal slices (DNQX, reduced Mg2+); assay type: cell-based, mouse
[1] = test system: Schaffer collateral-CA1 synapse; test: Chemically induced slow-onset potentiation (L-LTP) in hippocampal slices; assay type: cell-based, mouse
Experimental: FIG. 13C) and FIG. 13D): Drug was added at the time indicated in both panels at a concentration of 100 µM. Each point in the time courses represents the mean fEPSP slope±SEM normalized to the average of the predrug fEPSP slope. Insets show representative fEPSP traces just before drug addition and 3 hours after.
Is this reduction due to a direct effect on downstream components of L-LTP, or is it due to a failure to fully initiate L-LTP? To begin to explore this question we examined L-LTP evoked by pharmacological activation of the […], which bypasses tetanic stimulation in area CA1. In addition to being evoked through multiple high frequency tetani to the Schaffer collaterals, L-LTP in area CA1 can be induced chemically through either application of D1/D5 dopamine receptor agonists or direct activators of adenylyl cyclase and PKA. In wild-type slices, application of agonists of D1/D5 dopamine receptors or the PKA agonist Sp-cAMPS, result in a slow-onset potentiation of synaptic transmission that is sensitive to protein and RNA-synthesis inhibitors, and mutually occlusive with L-LTP elicited by multiple high frequency trains (Huang and Kandel, 1994; Huang et al., 1994; Bolshakov et al., 1997). If overexpression of calcineurin directly affects the machinery necessary to produce the late phase, pharmacologically-induced L-LTP, that bypasses E- and I-LTP, would be impaired in CN98-mutant mice, as is the case with the late phase deficit in tPA-knockout mice (Huang et al., 1996a).
We tested the ability of both the D1/D5 receptor agonist 6-Br-APB (100 μM) and the PKA activator Sp-cAMPs (100 μM) to elicit slow-onset potentiation at the Schaffer collateral-CA1 synapse in CN98 mice.
For extracellular recordings, ACSF-filled glass electrodes (1-3 MΩ) were positioned in the stratum radiatum of area CA1. A bipolar nichrome stimulating electrode was also placed in stratum radiatum for stimulation of Schaffer collateral afferents (0.05 ms duration). […]

calcineurin = test: Phosphatase assay in hippocampal extracts; assay type: biochemical, mouse
Experimental: Phosphatase assays were performed according to Hubbard and Klee (1991). Briefly, mice were injected with 5 ml/kg of pentobarbital and decapitated. Hippocampi were dissected out, homogenized in 2 mM EDTA (pH 8), 250 mM sucrose, 0.1% Bmercaptoethanol and centrifuged. Supernatants were diluted in 40 mM Tris-HCl (pH 8), 0.1M NaCl, 0.04 mg/ml bovine serum albumin, 1 mM DTT, […] (Buffer 1) and incubated at 30° C. for 1 min in Buffer 1 containing 1 mM of the peptide [γ^32P]-RII subunit of cyclic AMP-dependent protein kinase (PKA) and either 0.1 mM calmodulin (Sigma) and 0.66 mM Ca^2+ or 0.33 mM EGTA (pH 7.5). The peptide ^97[Ala]-RII (Peninsula Labs) was labeled with 0.3 roM [γ^32P]ATP (NEN) using 4 mg catalytic subunit of PKA (Fluka). The reaction was stopped with 5% TCA in 0.1 M KH2P04 and the enzyme activity was calculated as previously described (Klee et al., 1983) and is expressed in nmol Pi release/min/mg protein. The protein concentration was determined using the bicinchroninic acid protein assay kit (Sigma). All samples were performed in triplicate.
Phosphatase assays were performed as described in Winder et al., 1997. Briefly, mice were injected with 5 ml/kg of pentobarbital and decapitated. Hippocampi were dissected out, homogenized in 2 mM EDTA (pH 8), 250 mM sucrose, 0.1 k β-mercaptoethanol. Supernatants were incubated at 30° C. for 1 min in presence of the […] [Ala97]-RII peptide and either 0.1 mM calmodulin and 0.66 mM Ca^2+ or 0.33 mM EGTA. The reaction was stopped and the enzyme activity calculated previously as described (Klee et al., 1983; 1987). The activity was expressed in nmol Pi released/min/mg protein. The protein concentration was determined using the bicinchroninic acid protein assay kit (Sigma). All samples were performed in triplicate.

[2] = test system: Schaffer collateral-CA1 pyramidal cell synapse; test: LTP induced by two 100 Hz trains in hippocampal slices; assay type: cell-based, mouse; settings: for LTP induced by two 100 Hz trains in mutant mice after pretreatment: Tet-CN279 mutant slices, 750 nM calyculin A for 30 minutes
From the text: In an attempt to isolate, in still another way, the novel intermediate phase in which PKA acts to suppress a phosphatase cascade we varied the number of tetanic trains of stimulation. One of the characteristics that distinguishes E-LTP from L-LTP is that weak stimuli such as a single 100 Hz train elicit E-LTP but not L-LTP. In contrast, to reliably induce L-LTP, 3-4 repeated 100 Hz trains are required. We therefore sought to determine if an intermediate phase of LTP could also be distinguished from these phases based on the strength of stimulus required. We elicited LTP with two 100 Hz trains spaced by 20 seconds. This protocol elicited LTP that was more robust than that elicited by one 100 Hz train, but less maintained than that elicited by four trains (FIG. 14C). In contrast to LTP elicited by a single 100 Hz train which is not affected by inhibitors of PKA (Huang et al., 1996), LTP elicited by two trains was partially sensitive to the PKA inhibitor KT5720 (no drug: […]; 1 μM KT5720: 153±5% of baseline at 1 hr, 5 slices, 4 mice; […]; FIG. 14D). […] These two types of experiments reveal a novel intermediate phase of LTP (I-LTP) exists that requires 1) a stronger stimulus than E-LTP, and 2) the activation of PKA.
Transverse hippocampal slices were prepared as previously described (Huang and Kandel, 1994). Mice of either sex, aged 7-18 weeks were used. In all appropriate cases, the experimenter was blinded to animal genotype. Hippocampi was rapidly unilaterally dissected out on ice, and […] slices were cut on a McIlwain tissue chopper and placed in oxygenated ACSF (NaCl, 124 mM, KCl, 4.4 mM; CaCl2, 2.5 mM; MgSO4, 1.3 mM; NaH2PO4, 1 mM; glucose, 10 mM; and NaHCO3 26 mM). The slices were then transferred to an interface chamber where they were subfused with oxygenated ACSF (1-2 ml/min) and allowed to equilibrate for 60-90 min at 28° C.
For extracellular recordings, ACSF-filled glass electrodes (1-3 MΩ) were positioned in the stratum radiatum of area CA1. A bipolar nichrome stimulating electrode was also placed in stratum radiatum for stimulation of Schaffer collateral afferents (0.05 ms duration). Unless otherwise mentioned, test stimuli were applied at a frequency of 1 per minute (0.017 Hz), and at a stimulus intensity that elicits a fEPSP slope that was 35% of the maximum. Experiments in which a significant change in the fiber volley amplitude occurred, were discarded. Drugs were applied through the perfusion medium. DL-AP5, calyculin A, KT5720 and R(+)-6-Bromo-[…]-3-allyl-1-phenyl-2,3,4-tetrahydro-1H-3-benzazepine (6-Br-APB) were purchased from Research Biochemicals International, Natick, Mass. DL-AP5 was dissolved directly into ACSF prior to use. Calyculin A, KT5720 and 6-Br-APB were dissolved as 100× stocks in DMSO and diluted into ACSF just before use. Sp-cAMPS (Biolog, La Jolla, Calif.) was dissolved directly in ACSF.

[3] = test system: Schaffer collateral-CA1 pyramidal cell synapse; assay type: cell-based, mouse; settings: wild-type slices
CaMKII = CaMKII enzyme activity in striatum of B21 double transgenic mice on doxycycline; assay type: in vivo, mouse
Experimental: In double transgenic mice, a high level of expression of the CaMKII-Asp mRNA was obtained (FIGS. 5B and 7A-D). To determine the effect of this expression on enzyme activity. CaMKII activity was measured in the striatum of the B21 line of mice (Table 1).
Brains were removed and the striatum was dissected and immediately homogenized in 20 mM tris-HCl (pH 7.5), 0.5 mM EGTA, 0.5 mM EDTA, 2 mM leupeptin, 0.4 mM dithiothreitol, 0.1 mM phenylmethysulfonyl flouride, 0.4 mM molybdate, and 10 mM sodium pyrophosphate. CaMKII enzyme activity was determined as described (Mayford et al., 1995). B21+Dox animals received doxycycline (1 mg/ml) plus 5% sucrose in the drinking water for 3 to 5 weeks. B21+Dox withdrawal animals received doxycycline (1 mg/ml) for 3 to 5 weeks and were then switched to normal water for 6 weeks. The number of mice is given in parentheses.

[4] = test system: Schaffer collateral LTP in CA1 of hippocampal slices; test: 10-Hz LTP in CA1 of hippocampal slices (field EPSP slope); assay type: cell-based, mouse; settings: doxycycline 1 mg/ml drinking water 2 to 3 weeks, 1 ng/ml in perfusate
wild-type mice = test: Effect of doxycycline itself on memory of wild-type mice; assay type: in vivo, mouse
[5] = Dox withdrawal: doxycycline 1 mg/ml 3 to 5 weeks, then normal water 6 weeks
[6] = doxycycline 1 mg/ml plus 5% sucrose in drinking water 3 to 5 weeks

Structure (SMILES): NC(CCCP(=O)(O)O)C(=O)O (racemic) [DL-A95, DL-AP5]
NMDA-mediated field potentials in 10 μM DNQX and reduced Mg2+ (50 μM) (NMDA receptors): completely antagonized

Structure (SMILES): C=CCN1CCc2c(cc(O)c(O)c2Br)[C@@H](c2ccccc2)C1 [6-Br-APB, R(+)-6-Bromo-7,0-dihydroxy-3-allyl-1-phenyl-2,3,4-tetrahydro-1H-3-benzazepine]
fEPSP slope, % of baseline at 3 hr after drug application ([1]; CN98 mutant, 6-Br-APB 100 μM): 181±41%

phosphatase enzyme activity in hippocampal extracts (calcineurin; CN98 mutant + EGTA): 0.32±0.14 nmol Pi/min/mg | phosphatase activity (calcineurin; CN98 mutant and wild-type hippocampal extracts in the presence of EGTA): virtually abolished | phosphatase enzyme activity in hippocampal extracts (calcineurin; CN98 wild-type + EGTA): 0.427±0.16 nmol Pi/min/mg | phosphatase enzyme activity in hippocampal extracts (calcineurin; mutant (Tet-CN279+Tet-CN273) + EGTA): 0.287±0.17 nmol Pi/min/mg | phosphatase enzyme activity in hippocampal extracts (calcineurin; wild-type (Tet-CN279+Tet-CN273) + EGTA): 0.432 ± 0.11 nmol Pi/min/mg
Structure (SMILES): O=C(O)CN(CCOCCOCCN(CC(=O)O)CC(=O)O)CC(=O)O [EGTA]

Structure (SMILES): CCCCCCOC(=O)[C@]1(O)C[C@@H]2O[C@@]1(C)n1c3ccccc3c3c4c(c5c6ccccc6n2c5c31)C(=O)NC4 [KT5720]
fEPSP slope, % of baseline at 1 hr after two 100 Hz trains ([2]; wild-type slices, 1 μM KT5720): 153±5% | decay of LTP induced by four 100 Hz trains, compared with anisomycin ([3]; KT5720 1 μM, 20 minute pretreatment, anisomycin 30 μM one hour prior to tetanus): much more rapid decay

Structure (SMILES): Nc1ncnc2c1ncn2[C@@H]1O[C@@H]2COP(O)(=S)O[C@H]2[C@H]1O (stereo partly drawn) [Sp-cAMPS]
fEPSP slope, % of baseline at 3 hr after drug application ([1]; CN98 wild-type, printed as Sp-cAMPS application, 100 μM): 204±40% | fEPSP slope, % of baseline at 3 hr after drug application ([1]; wild-type, Sp-cAMPS 100 μM): 124±13%

Structure (SMILES): COc1ccc(C[C@H]2NC[C@H](O)[C@H]2OC(C)=O)cc1 [anisomycin]
sensitivity of LTP elicited by two trains to preincubation with the drug ([2]; wild-type slices, anisomycin 30 μM): completely insensitive | LTP induced by four trains ([3]; anisomycin 30 μM): reduced

Structure (SMILES): COC[C@@H]([C@H](O)[C@H](O)C(=O)NCC[C@H](C)c1nc(/C=C/C[C@@H]2O[C@]3(C[C@@H](O)[C@@H]2C)O[C@H]([C@H](C[C@H](O)[C@H](C)[C@H](O)[C@H](C)/C=C(C)/C(C)=C/C=C/C(C)=C\C#N)OC)[C@H](OP(=O)(O)O)C3(C)C)co1)N(C)C [calyculin A]
LTP induced by two 100 Hz trains in mutant mice after pretreatment [2]: indistinguishable from that seen in wild-type | LTP induced by two 100 Hz trains in mutant mice after pretreatment ([2]; listed as Calyculin A): rescues the deficit

memory (wild-type mice; doxycycline treatment in the adult animal): did not affect memory | adult spatial memory and memory for fear conditioning (wild-type mice; wild-type mice, doxycycline 1 mg/ml during development): impaired
Structure (SMILES): C[C@H]1c2cccc(O)c2C(=O)C2=C(O)[C@]3(O)C(=O)C(C(N)=O)=C(O)[C@@H](N(C)C)[C@@H]3[C@@H](O)[C@@H]21 [doxycycline]
CaMKII Activity Ca^2+-independent (%) (CaMKII; [5]): 5.70 ± 0.43% | CaMKII Activity With Ca^2+ (CaMKII; [5]): 14.2 ± 0.7 pmol/min/µg | CaMKII Activity Without Ca^2+ (CaMKII; [5]): 0.80 ± 0.03(3) pmol min^−1 μg^−1 | CaMKII Activity Ca^2+-independent (%) (CaMKII; [6]): 1.22 ± 0.03% | CaMKII Activity With Ca^2+ (CaMKII; [6]): 12.9 ± 1.5 pmol/min/µg | CaMKII Activity Without Ca^2+ (CaMKII; [6]): 0.16 ± 0.04(5) pmol min^−1 μg^−1 | field EPSP slope as percentage of pre-tetanus baseline after 10-Hz tetanus ([4]; B13 double transgenic mice): 132±10% | field EPSP slope as percentage of pre-tetanus baseline after 10-Hz tetanus ([4]; wild-type mice): 122±6% | fEPSP slope, % of baseline at 1 hr after two trains ([2]; Tet-CN279 on doxycycline (mutant sentence), 1 mg/ml in water supply, 1 ng/ml in ACSF): 184±18% | fEPSP slope, % of baseline at 1 hr after two trains ([2]; printed 'Tet-CN279 mutant mice on doxycycline' in the sentence on wild-type mice on or off doxycycline): 191±18%
